Laboratory results as given in ChEMBL document CHEMBL1131868, “Alpha-trifluoromethylated acyloins induce apoptosis in human oral tumor cell lines” (1999).
Where a name gives a salt, the structure may show the parent alone.

Columns and labels:
Type in all cases: functional
[1] = In vitro cytotoxic activity against human squamous cell carcinoma (HSC-2) cells.
[2] = In vitro cytotoxic activity against human gingival fibroblasts (HGF).
[3] = In vitro cytotoxic activity against human salivary gland tumor (HSG) cells.

SMILES | CC50 [1] | CC50 [2] | CC50 [3]
O=C(CC(O)C(F)(F)F)c1ccccc1 (centres undefined) | 240 µM | 1700 µM | 1500 µM
O=C(Oc1ccccc1)N1C=C(C(=O)C(F)(F)F)CC1 | 230 µM | 620 µM | 270 µM
O=C(Cc1nc2ccccc2s1)C(F)(F)F | 150 µM | 430 µM | 390 µM
O=C(Cc1ccccc1)C(O)C(F)(F)F (centres undefined) | 22 µM | 310 µM | 110 µM
O=C(c1nc2ccccc2o1)C(F)(F)F | 580 µM | 2200 µM | 1700 µM
CCCCCCC(=O)C(O)C(F)(F)F (centres undefined) | 90 µM | 790 µM | 220 µM
O=C(c1ccccc1)C(O)C(F)(F)F (centres undefined) | 36 µM | 1300 µM | 240 µM
COC(=O)CC(=O)C(F)(F)F | 1300 µM | > 2900 µM | 1800 µM
Cc1nc(CC(=O)C(F)(F)F)oc1C | < 68 µM | 77 µM | 150 µM
O=C(NCCCC(=O)C(O)C(F)(F)F)c1ccccc1 (centres undefined) | 31 µM | 420 µM | 400 µM
C=CCOC(=O)N1C=C(C(=O)C(F)(F)F)CC1 | 110 µM | 140 µM | 240 µM
O=C(Cc1nc2ccccc2o1)C(F)(F)F | 43 µM | 630 µM | 79 µM
O=C(C(=O)C(F)(F)F)c1ccccc1 | 79 µM | 510 µM | 390 µM
O=C(c1cccs1)C(F)(F)F | 1900 µM | > 2800 µM | 2700 µM
O=C(Cc1nc2ccccc2[nH]1)C(F)(F)F | 53 µM | 200 µM | 340 µM
CC(=O)CC(=O)C(F)(F)F | 2500 µM | > 3200 µM | 3200 µM
O=C(Cc1ccccn1)C(F)(F)F | 620 µM | 2100 µM | 1600 µM
O=C(c1ccc[nH]1)C(F)(F)F | 870 µM | 2100 µM | 1800 µM
O=C(Cc1ccccc1)C(F)(F)F | 1400 µM | 2200 µM | 1600 µM
O=C(c1ccccc1)C(F)(F)F | > 2900 µM | > 2900 µM | 2700 µM
COc1cccc2c1C(=O)c1c(O)c3c(c(O)c1C2=O)C[C@@](O)(C(=O)CO)C[C@@H]3O[C@H]1C[C@H](N)[C@H](O)[C@H](C)O1 [DOXORUBICIN HYDROCHLORIDE] | 4.1 µM |  | 
O=C(c1c[nH]c2ccccc12)C(F)(F)F | 94 µM | 2000 µM | 1300 µM
O=C(OC1c2ccccc2-c2ccccc21)N1C=C(C(=O)C(F)(F)F)CC1 | 140 µM | 230 µM | 180 µM
OC(Cc1ccccc1)C(F)(F)F (centres undefined) | 460 µM | 1700 µM | 1300 µM
OC(c1ccccc1)C(F)(F)F (centres undefined) | 1100 µM | 2200 µM | 2100 µM
CC(=O)C(O)c1ccccc1 (centres undefined) | 1700 µM | 3200 µM | 2900 µM
O=C(CC(=O)C(F)(F)F)c1ccccc1 | 150 µM | 1400 µM | 420 µM
